The values below come from US8216614B2 (The Board of Regents of the University of Texas Systems, priority 2005, dated 2012).

Like-named read-outs stand apart in the source and are kept apart here.

The nature of experiment [1]: Metabolic study on prevention of kidney stone formation: alkali load, urinary stone risk factors, urinary saturation. It is filed as in vivo, human. Conditions: two-week phase, 24-hour urine; for urinary ammonium / net gastrointestinal absorption of alkali: change from placebo phase; for net gastrointestinal absorption of alkali: postmenopausal women, constant diet. From the text:
A total of eighteen postmenopausal women without kidney stones underwent four phases of study chosen in random order while they were kept on a constant diet in a metabolic ward. […] During last two days of each phase, urine was collected in 24-hour pools for biochemistry and stone risk factors.
Provision of alkali load. […] If an alkali load is delivered, the net gastrointestinal absorption of alkali (calculated from urinary electrolytes) increases and urinary ammonium decreases (as a normal response of kidneys to alkali).

Experiment [2] in a line: Metabolic study on preventing bone loss: serum calcium, parathyroid hormone, bone turnover markers. Particulars: for decline in markers of bone resorption (urinary hydroxyproline, urinary N-telopeptide, serum type 1 collagen C-telopeptide): change from placebo phase; for serum calcium / serum parathyroid hormone: last two days of two-week phase. It is filed as in vivo, human. How it is done: During the last two days of each two-week phase, serum and 24-hour urine samples were collected for assessment of calcium metabolism, alkali load, and bone turnover markers.
Markers of bone turnover. The effect of treatment on bone resorption (destruction) was evaluated from urinary hydroxyproline, urinary N-telopeptide, and serum type 1 collagen C-telopeptide. These bone-derived substances are called markers of bone resorption, since they are elevated in states of high bone destruction.

For experiment [3] the following is noted: cited from earlier work; for bone mineral density: early postmenopausal women, Ruml et al., 1999.
For experiment [4] the following is noted: cited from earlier work.

`O=C([O-])CC(O)(CC(=O)[O-])C(=O)[O-].O=C([O-])CC(O)(CC(=O)[O-])C(=O)[O-].[Ca+2].[Ca+2].[Ca+2]` [calcium citrate]: in experiment [1], the urinary ammonium entry is recorded as “slightly but significantly decreased”, the “net gastrointestinal absorption of alkali” value is “marginally increased”, the urinary calcium result is recorded as “increased” and the urinary citrate result is “increased in the same direction”. In experiment [1], the urinary oxalate entry was “decreased significantly”, the “urinary pH” value is reported as “increased marginally” and the “urinary saturation of calcium oxalate” value is on record as “increased marginally”. In experiment [2], the “decline in markers of bone resorption (urinary hydroxyproline, urinary N-telopeptide, serum type 1 collagen C-telopeptide)” value is on record as “intermediate”; the serum calcium entry is given as “increased slightly”; the serum parathyroid hormone entry is given as “significantly decreased”. In addition, the urinary citrate entry in experiment [3] (calcium citrate supplementation, literature) is recorded as “modestly increases”. Also, the bone mineral density entry in experiment [3] is on record as “prevent, though not increase”.

For the compound `O=C([O-])[O-].[Ca+2]` [calcium carbonate], the bone mineral density result in experiment [3] is reported as “only partially effective”.

With `O=C([O-])CC(O)(CC(=O)[O-])C(=O)[O-].[K+].[K+].[K+]` [potassium citrate], in experiment [1], the urinary ammonium result is listed as “reduced”; the “net gastrointestinal absorption of alkali” value was “significantly and substantially increased”; the urinary calcium result is listed as “decreased”; the urinary citrate entry was “increased in the same direction”. In experiment [1], the urinary oxalate result is reported as “unaffected”; the “urinary pH” value is “significantly and substantially rose”; the “urinary saturation of calcium oxalate” value was “declined”. Besides, in experiment [2], the “decline in markers of bone resorption (urinary hydroxyproline, urinary N-telopeptide, serum type 1 collagen C-telopeptide)” value is on record as “least prominent”; the serum calcium result is “did not change”; the serum parathyroid hormone entry is given as “did not change”. In addition, the bone density entry in experiment [4] (Pak et al., 2001) is recorded as “increase bone density”. In addition, in experiment [4] (Sakhaee et al., 1991), the “calcium loss into urine” value was “prevent calcium loss into urine”. For the same compound, the urinary citrate result in experiment [4] (literature) is reported as “effective in increasing urinary citrate”.
